Results as given in US20160318844A1, “PROSTACYCLIN COMPOUNDS, COMPOSITIONS AND METHODS OF USE THEREOF” (Insmed Incorporated, priority 2015, published 2016).
Entries after “also recorded” stand apart in the source; their conditions may differ. Like-named read-outs stand apart in the source and are kept apart here. Values belong to the compound of their own block, whether it stands above or below them.

What was measured:
[1] = rat, in vivo
Experimental: Nebulized treprostinil (TRE) solution and treprostinil alkyl ester formulations were administered (at 15 nmol/kg, or […] TRE equivalent) to anaesthetised-ventilated rats (6-hour studies) or to conscious rats by nose-only inhalation (24-hour studies). Blood and lung samples were collected at specified time points. TRE and treprostinil alkyl ester concentrations in blood plasma and lung tissue were measured by HPLC/MS/MS analysis.
Male Sprague Dawley rats were placed in restraining tubes and exposed to nebulised drugs via the Jaeger-NYU Nose-Only Directed-Flow Inhalation Exposure System (CH Technologies, Westwood, N.J.) (FIG. 31). Test articles (6 mL at specific concentration) were nebulised using the Aeroneb nebuliser to deliver a predetermined estimated pulmonary dose. Blood and lung tissue samples were taken at selected times after nebulization of the drugs over a 24-hour period.

[2] = Particle size characterization of treprostinil compositions (QELS); assay type: physicochemical; settings: compositions of Table 3, FIG. 2
Experimental: The compositions in Table 3 were subject to particle size characterization.
All particle size measurements were performed using a Wyatt Technology Mobius™ Zeta Potential/Particle Sizing Instrument in Quasi-elastic light scattering (QELS) mode. Composition aliquots were diluted 10-fold in pre-filtered (0.02 μm pore filter) ultrapure of deionized H2O. Light scattering data was collected and converted into particle size and size distribution using Dynamics® v. 7.2.4 instrument software. Reported average particle size diameter is based on the cumulants model, which mathematically fits particle diffusion constants (determined by the raw scattering intensities of particles in a suspension) to obtain the particle size mean and a distribution of particle sizes around the mean diameter.
Particle uniformity was determined using the software-calculated polydispersity (% PD). Polydispersity is defined as the standard deviation of the particle size distribution from the mean particle size value. % PD normalizes the polydispersity to the mean diameter by dividing by the mean size and multiplying by 100. […]
Dynamics@ polydispersity parameter represents a monodisperse population of particles if % PD ≦15. A calculated % PD ≧57% represents a polydisperse population of particles.

EP2 prostanoid receptor = molecular target: T1, EP2 prostanoid receptor (Homo sapiens, UniProt P43116); test: GloSensor cAMP assay in CHO-K1 cells co-transfected with the EP2 receptor; assay type: cell-based; settings: for change of potency with incubation time: cAMP dose response curves, 0.5 hr to 8 hr; for ranking of activity: kinetic profile at 10 μM and 5 μM
T1 construct: host or cells: CHO-K1
Description: cAMP is a second messenger involved in signal transduction of G-protein coupled receptors (GPCRs) acting through Gα-s and Gα-i proteins. Because the treprostinil receptor is a GPCR, the assay provides an indication of whether the respective prostacyclin compound (or metabolite thereof) binds its receptor and activates the GPCR cell signaling cascade. The GloSensorTM assay harnesses a genetically modified form of firefly luciferase into which a cAMP-binding protein moiety has been inserted. Upon binding of cAMP, a conformational change is induced leading to increased light output. The EP2 prostanoid receptor was cotransfected with the GioSensorm plasmid (Promega) into CHO-K cells as follows. CHO-K cells were harvested when the monoloayer was at 50-90% confluence. First, cells were washed with 5 mL PBS. […] The media was aspirated, and the cell pellet was resuspended in 10 mL of growth media. Cell number was determined using a hemacytometer. […] For small scale transfections of up to 20 wells, the pGLoSensor-22F cAMP plasmid (Promega, Cat #: E2301) (2 apg): […] Cat #: […] P2271) ratio was diluted to a final concentration of 12.6 ng/μL (total plasmid) in Opti-MEM I reduced-serum medium (Life Technologies, Cat #: 1985062). Next, 6 μL of FuGENE HD transfection reagent (Promega, Cat #: E2311) was added to 160 μL of diluted plasmid and mixed carefully by gentle pipetting. The complex was incubated at room temperature for 0 to 10 minutes, and then 8 μL of the complex was added per well of a 96 well white assay plate (Costar, Cat #: 3917) and gently mixed without disturbing the cell monolayer. […] Following incubation, cells were treated and analyzed. For larger scale transfections, the aforementioned steps were scaled up accordingly, and cells were frozen following the last incubation. In order to prepare frozen transfected CHO-K cells, the media was aspirated from culture flasks and cells were rinsed with 5 mL PBS. […] Cell number was determined using a hemacytometer. The media was aspirated, and the cell pellet was resuspended in freezing media (Millipore, cat #: S-002-SF) at 2.5×10^4 cells/vial. Transfected cells were incubated overnight at -80° C. before transfer to liquid nitrogen for long term storage. […] SH30071.03)). […] In preparation for cAMP measurement, the cells were equilibrated with the GloSensor cAMP reagent prior to treatment. For equilibration, the medium was carefully removed from the individual well. Next, 100 μL of equilibration medium ([…] of Glosensor Reagent stock solution (Promega, Cat #: E291), 10% FBS (Hydone, Cat #: SH30071.03) and 88% CO2 independent medium (Life Technologies, Cat #: 18045088)) was added per well of the 96-well plate, and added to the side of each well. The plate was then incubated for 2 hours at room temperature. A first pre-read measurement was taken using a microplate reader (MicroLumat Plus). Plates were incubated for an additional 10 minutes at room temperature, followed by a second pre-read measurement. […] Following treatment, each plate was read every 5 minutes for the duration of the assay using a microplate reader (MicroLumat Plus). In order to determine the fold change in cAMP relative to the control, the transfection efficiency was first determined by dividing the second pre-read measurement by the average of the corresponding pre-read measurements. Next, the normalized relative light units (RLUs) of the samples were determined by dividing the plate read measurement by the transfection efficiency. The fold change in cAMP relative to the control was then determined by dividing the normalized RLU of the samples by the normalized RLU of the control. The cAMP assay was validated using free treprostinil. […] Luminescence was then measured at room temperature. […] Nebulizer Aeroneb Pro (Aerogen) was used to nebulize treprostinil derivative compositions. Desired volume of the formulation (usually 3 mL) was loaded to the mesh head of the nebulizer. […]

[3] = Tolerability and pharmacokinetics in rats, inhaled C16-TR (T748) for 14-consecutive days; assay type: in vivo, rat; settings: inhaled 0.6-18 μg/kg, formulation T748
Experimental: Body weights were recorded daily and organ weights (lungs, heart, liver) were measured 24 hr. after the last drug dose.

in vivo = settings: dog
Experimental: Twelve beagle dogs of either sex were randomly assigned to different inhaled doses of treprostinil in PBS or the compound of Formula (A) wherein R2=
Formulations were nebulized with an Aeroneb nebulizer (MMAD: 2.5-4 μm) delivered into a 500 m1 expansion chamber. Formulations were nebulized for 2 min at ventilator settings of 90 ml/breath, 15 breaths/min (delivered volume=2.7 L) and collected on a filter. Drug amount (μg) on the filter was measured by HPLC to calculate the concentration of drug delivered through the ventilator circuit (μg/L).
(§1) Dosimetry was performed in propofol-anesthetized dogs in which nebulized drugs were introduced into a mixing chamber interposed on the inspiratory limb of a canine respirator. Technical trials were performed before each experiment to measure the concentration of drug (μg/L) delivered for each breath. The inhaled drug dose (μg/kg) was calculated using the formula: Inhaled Drug Dose (μg/kg)=Drug Conc. (μg/L)×Minute Ventilation (L/min.)×Time (min.)/Body Weight (kg). […] Clinical signs were monitored over this 72 hr. period.
(§2) Dosimetry was performed in propofol-anesthetized, artificially ventilated dogs in which nebulized drugs were introduced into a mixing chamber interposed on the inspiratory limb of the respirator. Technical trials were performed before each experiment measuring the concentration of drug (μg/L) per breath, minute ventilation and time required to achieve a targeted pulmonary dose. […] Clinical signs (cough, rapid shallow breathing, emesis and pale gums) were also monitored.

guinea pigs = test: Cough reflex in guinea pigs; assay type: in vivo, guinea pig
Experimental: Aerosols were generated with an Ultra-Neb Pro nebulizer (nebulizer output 0.36 mL/min.) that was mixed with inspired air delivered at a rate of 2 L/min. The PBS or drugs were delivered for 10 min. and the number of coughs recorded during and for 20 min. after the delivery. Coughs were detected by visual observations, plethysmograph recordings and cough sounds.

[4] = Treprostinil pharmacokinetics in anaesthetised, ventilated rats after nebulized dosing; assay type: in vivo, rat
Experimental: Male Sprague Dawley rats were anaesthetised and prepared with endotracheal tube for ventilation. The right femoral vein was cannulated to facilitate blood collections. Terminal lung samples were taken for analysis only 6 hours after dosing. […] Systemic blood pressure (mSAP), heart rate (HR), and arterial oxygen saturation (Sa02). Physiologic parameters were measured during normoxia (fraction of inspired oxygen [FrO2]=0.21, SaO2≈90%) and for 2 to 3 hours during hypoxia (FrO2=0.10, SaO2≈50%).

beagle dogs = test: Clinical signs in dogs after inhalation
Experimental: as §1, §2

[5] = male, Sprague Dawley, rat, inhaled or intranasal, 6 ug/kg, plasma treprostinil, nebulized, estimated pulmonary dose of 6 μg/kg

T1 sequence (P43116 whole entry): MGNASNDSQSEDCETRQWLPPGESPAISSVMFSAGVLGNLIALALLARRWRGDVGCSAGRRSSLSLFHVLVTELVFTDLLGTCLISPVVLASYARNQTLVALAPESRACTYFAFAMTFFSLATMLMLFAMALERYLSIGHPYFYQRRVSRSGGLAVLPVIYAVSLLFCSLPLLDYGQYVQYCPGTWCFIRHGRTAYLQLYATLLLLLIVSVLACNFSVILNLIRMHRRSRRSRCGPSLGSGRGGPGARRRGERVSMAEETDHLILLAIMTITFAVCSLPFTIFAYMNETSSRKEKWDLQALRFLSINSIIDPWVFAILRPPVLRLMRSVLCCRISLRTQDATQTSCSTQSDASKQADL

immediately post dose (IPD) [1]: 0.0104 mg/kg | polydispersity (% PD) [2]: around 15 % PD | change of potency with incubation time (EP2 prostanoid receptor): increases with incubation time | ranking of activity (EP2 prostanoid receptor): C12-TR>C14-TR>5-nonanyl-TR>C16-TR
Compound: CCCCCCCCCCCCCCOC(=O)COc1cccc2c1C[C@H]1C[C@@H](O)[C@H](CC[C@@H](O)CCCCC)[C@H]1C2 [Compound C14-TR, tetradecyl-treprostinil]

Compound: CCCCCCCCCCCCCCCCOC(=O)COc1cccc2c1C[C@H]1C[C@@H](O)[C@H](CC[C@@H](O)CCCCC)[C@H]1C2 [Compound C16-TR, hexadecyl-treprostinil]
change of potency with incubation time (EP2 prostanoid receptor): increases with incubation time | ranking of activity (EP2 prostanoid receptor): C12-TR>C14-TR>5-nonanyl-TR>C16-TR | tolerability, body weights and organ weights [3]: no tolerability issues or significant changes (relative to PBS) in body weights and organ weights; also recorded: well tolerated

Compound: CCCCC[C@H](O)CC[C@@H]1[C@H]2Cc3cccc(OCC(=O)O)c3C[C@H]2C[C@H]1O [Treprostinil, (1R,2R,3aS,9aS)-[[2,3,3a,4,9,9a-hexahydro-2-hydroxy-1-[(3S)-3-hydroxyoctyl]-1H-benz[f]inden-5-yl]oxy]acetic acid]
Cmax (in vivo; beagle, 18 ug/kg): 5.9 ± 0.6 ng/mL | treprostinil plasma Cmax, fold higher than with T623 at similar inhaled doses (in vivo; both, beagle): 15-20 fold | Cmax (in vivo; both, beagle, inhaled or intranasal, 5 ug/kg): 2.7 ng/mL | Cmax (in vivo; both, beagle, inhaled or intranasal, 16 ug/kg): 5.9 ng/mL | period over which plasma levels of treprostinil were sustained (in vivo): disappeared within a few hours | exposure concentration that consistently evokes cough (guinea pigs; aerosol 1-300 μg/ml): ≥ 30 µg/mL | cough bouts (guinea pigs; nebulized concentration of 30 μg/mL): 1-4 | guinea pigs with cough (guinea pigs; nebulized concentration of 30 μg/mL, 10 min. exposure): 7 of 7 | total number of coughs (guinea pigs; nebulized concentration of 30 μg/mL, average): 36±9 coughs | cAMP levels sustained for (EP2 prostanoid receptor; 10 μM, FIG. 3A): not exhibited | EC50 (EP2 prostanoid receptor; 4.5 hr incubation time, read-out: EC50 (μM) 4.5 hr): 0.2 µM | EC50 (EP2 prostanoid receptor; 6.0 hr incubation time, read-out: EC50 (μM) 6.0 hr): 0.29 µM | EC50 (EP2 prostanoid receptor; 8.0 hr incubation time, read-out: EC50 (μM) 8.0 hr): 0.44 µM | EC50 (EP2 prostanoid receptor; EC50 (μM) 0.5 hr, 0.5 hr incubation time): 0.18 µM | EC50 (EP2 prostanoid receptor; EC50 (μM) 1.0 hr, 1.0 hr incubation time): 0.28 µM | EC50 (EP2 prostanoid receptor; EC50 (μM) 2.0 hr, 2.0 hr incubation time): 0.15 µM | EC50 (EP2 prostanoid receptor; EC50 (μM) 3.0 hr, 3.0 hr incubation time): 0.16 µM | EC50 (EP2 prostanoid receptor; EC50 (μM) 4.0 hr, 4.0 hr incubation time): 0.19 µM | EC50 (EP2 prostanoid receptor; EC50 (μM) 5.0 hr, 5.0 hr incubation time): 0.26 µM | EC50 (EP2 prostanoid receptor; EC50 (μM) 7.0 hr, 7.0 hr incubation time): 0.46 µM | Max cAMP level (Fold) (EP2 prostanoid receptor; Table 4, compositions of FIGS. 3A-3C (10 μM, 1 μM, 0.1 μM), 8 hours time course): ~16 Fold | Max cAMP level (Fold) (EP2 prostanoid receptor; Table 5, 5 μM, FIG. 4, 8 hours time course): ~14 Fold | Max cAMP level (Fold) (EP2 prostanoid receptor; Table 6, effect of nebulization, head (5 μM), FIG. 6): ~15 Fold | change of potency with incubation time (EP2 prostanoid receptor): potency decreases with increasing incubation time | time by which measurable levels of TRE were no longer seen in the lungs [4]: < 6 h | time up to which measurable levels of TRE were seen in blood plasma [4]: ≤ 4 h | AUC(0-t) [4, 5]: 2.13 ng·h/mL | Cmax [4, 5]: 3.37 ng/mL | Tmax [4, 5]: 3 min | Cmax ([4]; male, Sprague Dawley, rat, inhaled, 6 ug/kg, plasma treprostinil, nebulized, estimated pulmonary dose of 6 μg/kg): 3.5 ng/mL | respiratory irritation (coughing, rapid shallow breathing) (beagle dogs; T623 inhaled doses as high as 46 μg/kg, treprostinil 5 and 16 μg/kg): present during the recovery period | adverse clinical signs (beagle dogs; targeted dose of 18 μg/kg): Adverse clinical signs were seen

polydispersity (% PD) [2]: around 15 % PD | cAMP levels compared with free treprostinil (EP2 prostanoid receptor; 10 μM, FIG. 3A): equivalent to free treprostinil | cAMP levels sustained for (EP2 prostanoid receptor; 10 μM, FIG. 3A): at least 6 hours | cAMP response levels (EP2 prostanoid receptor; unformulated compounds, 5 μM, FIG. 5): equivalent to free treprostinil
Compound: treprostinil decyl ester [Compound C10-TR]
duration of cAMP levels (EP2 prostanoid receptor; 5 μM, FIG. 4 and FIG. 5): sustained significantly longer than free treprostinil | cAMP response compared with free treprostinil (EP2 prostanoid receptor; compositions, 5 μM, FIG. 4): greater than or equivalent to the response induced by free treprostinil
